Measurements taken from patent publication US10647713B2 (Nimbus Lakshmi, Inc., priority 2016, dated 2020).

Target: human TYK2 (JH2domain-pseudokinase) (Homo sapiens (Human), UniProt P29597)
Assay: TYK2 JH2 Domain Binding Assay (KINOMEscan, DiscoveRx)
Settings: 11-point dilution, duplicate
Method in brief: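 Kd from duplicate 11-point 3-fold dilutions starting at 30,000 nM, fitted by Hill equation with slope fixed at −1. Compounds (final 0.9% DMSO) displace DNA-tagged HEK293-expressed TYK2 JH2 fusion (<0.1 nM) from ligand-coated beads over 1 h at room temperature; eluted kinase read by qPCR.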

human TYK2 (JH2domain-pseudokinase), sequence (P29597 556-888): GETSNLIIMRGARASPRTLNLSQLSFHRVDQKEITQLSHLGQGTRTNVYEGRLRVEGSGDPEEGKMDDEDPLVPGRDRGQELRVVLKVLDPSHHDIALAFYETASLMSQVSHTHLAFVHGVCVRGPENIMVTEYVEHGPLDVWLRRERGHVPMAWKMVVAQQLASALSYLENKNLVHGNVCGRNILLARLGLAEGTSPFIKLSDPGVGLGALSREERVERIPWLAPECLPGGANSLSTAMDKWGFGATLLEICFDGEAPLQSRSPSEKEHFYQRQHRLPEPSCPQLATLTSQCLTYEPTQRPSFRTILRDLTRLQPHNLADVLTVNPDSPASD

Structure (SMILES)	Kd [nM]
CS(=O)(=O)c1cc([C@H]2CCCOC2)ccc1Nc1cc(NC(=O)[C@@H]2CC2(F)F)nc2[nH]c(C(F)F)nc12 [I-311, (S)—N-(2-(difluoromethyl)-7-((2-(methylsulfonyl)-4-((R)-tetrahydro-2H-pyran-3-yl)phenyl)amino)-3H-imidazo[4,5-b]pyridin-5-yl)-2,2-difluorocyclopropane-1-carboxamide]	1 to 10
Cc1nc2c(Nc3ccc(-c4nc(C)c(C)s4)cc3S(C)(=O)=O)cc(NC(=O)C3CC3)nc2[nH]1 [I-312, N-(7-((4-(4,5-dimethylthiazol-2-yl)-2-(methylsulfonyl)phenyl)amino)-2-methyl-3H-imidazo[4,5-b]pyridin-5-yl)cyclopropanecarboxamide]	0.1 to 0.5
Cc1cc(-c2ccc(Nc3cc(NC(=O)[C@@H]4CC4(F)F)nc4[nH]c(C(F)F)nc34)c(S(C)(=O)=O)c2)nn1C [I-313, (S)—N-(2-(difluoromethyl)-7-((4-(1,5-dimethyl-1H-pyrazol-3-yl)-2-(methylsulfonyl)phenyl)amino)-3H-imidazo[4,5-b]pyridin-5-yl)-2,2-difluorocyclopropane-1-carboxamide]	0.5 to 1
Cc1cc(-c2ccc(Nc3cc(NC(=O)[C@H]4CC4(F)F)nc4[nH]c(C(F)F)nc34)c(S(C)(=O)=O)c2)nn1C [I-314, (R)—N-(2-(difluoromethyl)-7-((4-(1,5-dimethyl-1H-pyrazol-3-yl)-2-(methylsulfonyl)phenyl)amino)-3H-imidazo[4,5-b]pyridin-5-yl)-2,2-difluorocyclopropane-1-carboxamide]	1 to 10
Cc1cn(C)nc1-c1ccc(Nc2cc(Nc3cnc(C)c(C)n3)nc3[nH]c(C(F)F)nc23)c(S(C)(=O)=O)c1 [I-315, 2-(difluoromethyl)-N7-(4-(1,4-dimethyl-1H-pyrazol-3-yl)-2-(methylsulfonyl)phenyl)-N5-(5,6-dimethylpyrazin-2-yl)-3H-imidazo[4,5-b]pyridine-5,7-diamine]	0.1 to 0.5
CS(=O)(=O)c1cc([C@@H]2CCCO2)ccc1Nc1cc(NC(=O)[C@@H]2CC2(F)F)nc2[nH]c(C(F)F)nc12 [I-316, (S)—N-(2-(difluoromethyl)-7-((2-(methylsulfonyl)-4-((S)-tetrahydrofuran-2-yl)phenyl)amino)-3-imidazo[4,5-b]pyridin-5-yl)-2,2-difluorocyclopropane-1-carboxamide]	0.5 to 1
CS(=O)(=O)c1cc([C@@H]2CCCO2)ccc1Nc1cc(NC(=O)[C@H]2CC2(F)F)nc2[nH]c(C(F)F)nc12 [I-317, (R)—N-(2-(difluoromethyl)-7-((2-(methylsulfonyl)-4-((S)-tetrahydrofuran-2-yl)phenyl)amino)-3-imidazo[4,5-b]pyridin-5-yl)-2,2-difluorocyclopropane-1-carboxamide]	0.1 to 0.5
CS(=O)(=O)c1cc(C2CCC2)ccc1Nc1cc(NC(=O)[C@@H]2CC2(F)F)nc2[nH]c(C(F)F)nc12 [I-318, (S)—N-(7-((4-cyclobutyl-2-(methylsulfonyl)phenyl)amino)-2-(difluoromethyl)-3H-imidazo[4,5-b]pyridin-5-yl)-2,2-difluorocyclopropane-1-carboxamide]	> 10
CS(=O)(=O)c1cc(C2CCC2)ccc1Nc1cc(NC(=O)[C@H]2CC2(F)F)nc2[nH]c(C(F)F)nc12 [I-319, (R)—N-(7-((4-cyclobutyl-2-(methylsulfonyl)phenyl)amino)-2-(difluoromethyl)-3H-imidazo[4,5-b]pyridin-5-yl)-2,2-difluorocyclopropane-1-carboxamide]	> 10
COc1c(Nc2cc(NC(=O)C3CC3)nc3[nH]c(C(F)F)nc23)cccc1-c1nc(C)cs1 [I-320, N-(2-(difluoromethyl)-7-((2-methoxy-3-(4-methylthiazol-2-yl)phenyl)amino)-3H-imidazo[4,5-b]pyridin-5-yl)cyclopropanecarboxamide]	1 to 10
COc1c(Nc2cc(NC(=O)C3CC3)nc3[nH]c(C)nc23)cccc1-c1nc(C)cs1 [I-321, N-(7-((2-methoxy-3-(4-methylthiazol-2-yl)phenyl)amino)-2-methyl-3H-imidazo[4,5-b]pyridin-5-yl)cyclopropanecarboxamide]	1 to 10
Cn1cnc(-c2ccc(Nc3cc(NC(=O)[C@@H]4C[C@@H]4F)nc4[nH]c(C(F)F)nc34)c(S(C)(=O)=O)c2)c1 [I-322, (1S,2S)—N-(2-(difluoromethyl)-7-((4-(1-methyl-1H-imidazol-4-yl)-2-(methylsulfonyl)phenyl)amino)-3H-imidazo[4,5-b]pyridin-5-yl)-2-fluorocyclopropane-1-carboxamide]	0.1 to 0.5
Cc1nc2c(Nc3ccc([C@@H]4CCCCO4)cc3S(C)(=O)=O)cc(NC(=O)[C@H]3CC3(F)F)nc2[nH]1 [I-323, 2,2-difluoro-N-(2-methyl-7-((2-(methylsulfonyl)-4-((S)-tetrahydro-2H-pyran-2-yl)phenyl)amino)-3H-imidazo[4,5-b]pyridin-5-yl)cyclopropane-1-carboxamide]	0.1 to 0.5
CS(=O)(=O)c1cc([C@@H]2CCCCO2)ccc1Nc1cc(NC(=O)C2CC2(F)F)nc2[nH]c(C(F)F)nc12 (stereo partly drawn) [I-325, N-(2-(difluoromethyl)-7-((2-(methylsulfonyl)-4-((S)-tetrahydro-2H-pyran-2-yl)phenyl)amino)-3H-imidazo[4,5-b]pyridin-5-yl)-2,2-difluorocyclopropane-1-carboxamide]	0.5 to 1
CS(=O)(=O)c1cc([C@H]2CCCCO2)ccc1Nc1cc(NC(=O)[C@H]2CC2(F)F)nc2[nH]c(C(F)F)nc12 [I-326, N-(2-(difluoromethyl)-7-((2-(methylsulfonyl)-4-((R)-tetrahydro-2H-pyran-2-yl)phenyl)amino)-3H-imidazo[4,5-b]pyridin-5-yl)-2,2-difluorocyclopropane-1-carboxamide]	1 to 10
CS(=O)(=O)c1cc([C@@H]2CCCO2)ccc1Nc1cc(NC(=O)C2CC2(F)F)nc2[nH]c(C(F)F)nc12 (stereo partly drawn) [I-327, N-(2-(difluoromethyl)-7-((2-(methylsulfonyl)-4-((S)-tetrahydrofuran-2-yl)phenyl)amino)-3H-imidazo[4,5-b]pyridin-5-yl)-2,2-difluorocyclopropane-1-carboxamide]	0.1 to 0.5
CN=S(C)(=O)c1ccccc1Nc1cc(NC(=O)C2CC2)nc2[nH]c(C)nc12 (stereo not shown) [I-328, N-(7-((2-(N,S-dimethylsulfonimidoyl)phenyl)amino)-2-methyl-3H-imidazo[4,5-b]pyridin-5-yl)cyclopropanecarboxamide]	0.1 to 0.5
CS(=O)(=O)c1cc([C@H]2CCCO2)ccc1Nc1cc(NC(=O)C2CC2(F)F)nc2[nH]c(C(F)F)nc12 (stereo partly drawn) [I-329, N-(2-(difluoromethyl)-7-((2-(methylsulfonyl)-4-((R)-tetrahydrofuran-2-yl)phenyl)amino)-3H-imidazo[4,5-b]pyridin-5-yl)-2,2-difluorocyclopropane-1-carboxamide]	1 to 10
Cc1nc2c(Nc3ccc(C4CCC(C)(C)O4)cc3S(C)(=O)=O)cc(NC(=O)C3CC3)nc2[nH]1 (stereo not shown) [I-330, N-(7-((4-(5,5-dimethyltetrahydrofuran-2-yl)-2-(methylsulfonyl)phenyl)amino)-2-methyl-3H-imidazo[4,5-b]pyridin-5-yl)cyclopropanecarboxamide]	0.1 to 0.5
Cc1c(-c2ccc(Nc3cc(NC(=O)C4CC4(F)F)nc4[nH]c(C(F)F)nc34)c(S(C)(=O)=O)c2)cnn1C (stereo not shown) [I-331, N-(2-(difluoromethyl)-7-((4-(1,5-dimethyl-1H-pyrazol-4-yl)-2-(methylsulfonyl)phenyl)amino)-3H-imidazo[4,5-b]pyridin-5-yl)-2,2-difluorocyclopropane-1-carboxamide]	0.1 to 0.5
CC1(C)CCC(c2ccc(Nc3cc(NC(=O)C4CC4)nc4[nH]c(C(F)F)nc34)c(S(C)(=O)=O)c2)O1 (stereo not shown) [I-332]	0.1 to 0.5
C[S+]([O-])c1ccccc1Nc1cc(NC(=O)C2CC2)nc2[nH]c(C(F)F)nc12 (stereo not shown) [I-333, N-(2-(difluoromethyl)-7-((2-(methylsulfinyl)phenyl)amino)-3H-imidazo[4,5-b]pyridin-5-yl)cyclopropanecarboxamide]	1 to 10
Cc1nc2c(Nc3ccc(C4CCCO4)cc3S(C)(=O)=O)cc(NC(=O)C3CC3)nc2[nH]1 (stereo not shown) [I-334, N-(2-methyl-7-((2-(methylsulfonyl)-4-(tetrahydrofuran-2-yl)phenyl)amino)-3H-imidazo[4,5-b]pyridin-5-yl)cyclopropanecarboxamide]	< 0.1
CS(=O)(=O)c1cc(C2CCCO2)ccc1Nc1cc(NC(=O)C2CC2)nc2[nH]c(C(F)F)nc12 (stereo not shown) [I-335, N-(2-(difluoromethyl)-7-((2-(methylsulfonyl)-4-(tetrahydrofuran-2-yl)phenyl)amino)-3H-imidazo[4,5-b]pyridin-5-yl)cyclopropanecarboxamide]	> 10
Cc1nc2c(Nc3ccccc3[S+](C)[O-])cc(NC(=O)C3CC3)nc2[nH]1 (stereo not shown) [I-336, N-(2-methyl-7-((2-(methylsulfinyl)phenyl)amino)-3H-imidazo[4,5-b]pyridin-5-yl)cyclopropanecarboxamide]	1 to 10
CS(=O)(=O)c1cc(C2CCOCC2)ccc1Nc1cc(NC(=O)C2CC2(F)F)nc2[nH]c(C(F)F)nc12 (stereo not shown) [I-337, N-(2-(difluoromethyl)-7-((2-(methylsulfonyl)-4-(tetrahydro-2H-pyran-4-yl)phenyl)amino)-3H-imidazo[4,5-b]pyridin-5-yl)-2,2-difluorocyclopropane-1-carboxamide]	1 to 10
Cc1cc(-c2ccc(Nc3cc(NC(=O)C4CC4(F)F)nc4[nH]c(C(F)F)nc34)c(S(C)(=O)=O)c2)nn1C (stereo not shown) [I-338, N-(2-(difluoromethyl)-7-((4-(1,5-dimethyl-1H-pyrazol-3-yl)-2-(methylsulfonyl)phenyl)amino)-3H-imidazo[4,5-b]pyridin-5-yl)-2,2-difluorocyclopropane-1-carboxamide]	1 to 10
Cc1nc2c(Nc3ccc(C4=NC(C)(C)CO4)cc3S(C)(=O)=O)cc(NC(=O)[C@H]3C[C@H]3F)nc2[nH]1 [I-339, (1R,2R)—N-(7-((4-(4,4-dimethyl-4,5-dihydrooxazol-2-yl)-2-(methylsulfonyl)phenyl)amino)-2-methyl-3H-imidazo[4,5-b]pyridin-5-yl)-2-fluorocyclopropane-1-carboxamide]	1 to 10
